Laboratory results from patent US10793571B2, “Uses of diazepane derivatives” (Dana-Farber Cancer Institute, Inc., priority 2014, dated 2020).

Tests used:
BRD4.1 = biological target: T1, BRD4.1 (Homo sapiens, UniProt O60885); assay: Acetyl-histone binding assay (AlphaScreen), percent inhibition of BRD4.1; settings: BRD4.1, 2.5 μM compound concentration, in vitro; read-out: % INHIB (at 2.5 uM)
T1 construct: final concentrations of BRD4.1 at 80 nM; His tag (inferred from the Ni-coated acceptor bead)
Method: (§1) Assays were performed with minor modifications from the manufacturer's protocol (PerkinElmer, USA). All reagents were diluted in 50 mM HEPES, 150 mM NaCl, 0.1% w/v BSA, and 0.01% w/v Tween^□ 20 at pH 7.5 and allowed to equilibrate to room temperature prior to addition to plates. After addition of Alpha beads to master solutions, all subsequent steps were performed in low light conditions. […] Addition to wells was performed with either a multichannel pipet (for optimization experiments) or a Biotek EL406 liquid handler. After a 1000-rpm spin-down for 1 minute, 100 nL of the solutions of the compounds of the invention from stock plates were added by pin transfer using a Janus Workstation (PerkinElmer, USA). The streptavidin-coated donor beads (25 μg/ml final) were added as with previous solution in a 2x, 10 μL volume. Following this addition, the plates were sealed with foil to block light exposure and to prevent evaporation. The plates were spun down again at 1000 rpm for 1 minute. Next, the plates were incubated in the room with the plate reader (for temperature equilibration) for 1.5 hour prior to reading the assay.

MOLM-13 = assay: Cellular assay (ATPlite cell viability), MOLM-13; format: cell-based; settings: MOLM-13 cell line
Method: (§2) The compounds of the invention are also evaluated in the BRD4 dependant cell line for the cellular activity to generate cellular IC50 values.
(§3) Cells (e.g., BRD4 dependant cells) were counted and adjusted to 60,000 cells/mL. Using a Biotek EL406, 50 μL, of the cells in media were distributed into 384 well white plates from Thermo. Immediately after plating, compounds of the invention in DMSO were distributed to plates. For large plate sets, cells were returned to a 37° C. incubator while not in use. The compounds were added to plates using a 100 nL 384 well pin transfer manifold on a Janus workstation. Stocks were arrayed in 10 point quadruplicate dose response in DMSO stock in 384-well Greiner compound plates. After addition of the compounds, plates were incubated for three days in a 37° C. incubator. Cell viability was read out using ATPlite from Perkin Elmer. Plates were removed from the incubator and brought to room temperature prior to use. Lyophilized powder was resuspended in lysis buffer and diluted 1:2 with DI water. 25 μL of this solution was added to each well using the Biotek liquid handler. Plates were sealed with adherent aluminum seals prior to vortexing and spinning down at 1000 g for 1 minute. Plates were incubated for 15 minutes at room temperature before signal was read on an Envision Plate Reader.

797 = assay: Cellular assay (ATPlite cell viability), 797; format: cell-based; settings: 797 cell line
Method: as §2, §3

TF-1 = assay: Cellular assay (ATPlite cell viability), TF-1; format: cell-based; settings: TF-1 cell line
Method: as §2, §3

MV411 = assay: Cellular assay (ATPlite cell viability), MV411; format: cell-based; settings: MV411 cell line
Method: as §2, §3

LRRK2 = LRRK2 (Homo sapiens, UniProt Q5S007); assay: LRRK2 IC50; format: biochemical
LRRK2, sequence (Q5S007 whole entry): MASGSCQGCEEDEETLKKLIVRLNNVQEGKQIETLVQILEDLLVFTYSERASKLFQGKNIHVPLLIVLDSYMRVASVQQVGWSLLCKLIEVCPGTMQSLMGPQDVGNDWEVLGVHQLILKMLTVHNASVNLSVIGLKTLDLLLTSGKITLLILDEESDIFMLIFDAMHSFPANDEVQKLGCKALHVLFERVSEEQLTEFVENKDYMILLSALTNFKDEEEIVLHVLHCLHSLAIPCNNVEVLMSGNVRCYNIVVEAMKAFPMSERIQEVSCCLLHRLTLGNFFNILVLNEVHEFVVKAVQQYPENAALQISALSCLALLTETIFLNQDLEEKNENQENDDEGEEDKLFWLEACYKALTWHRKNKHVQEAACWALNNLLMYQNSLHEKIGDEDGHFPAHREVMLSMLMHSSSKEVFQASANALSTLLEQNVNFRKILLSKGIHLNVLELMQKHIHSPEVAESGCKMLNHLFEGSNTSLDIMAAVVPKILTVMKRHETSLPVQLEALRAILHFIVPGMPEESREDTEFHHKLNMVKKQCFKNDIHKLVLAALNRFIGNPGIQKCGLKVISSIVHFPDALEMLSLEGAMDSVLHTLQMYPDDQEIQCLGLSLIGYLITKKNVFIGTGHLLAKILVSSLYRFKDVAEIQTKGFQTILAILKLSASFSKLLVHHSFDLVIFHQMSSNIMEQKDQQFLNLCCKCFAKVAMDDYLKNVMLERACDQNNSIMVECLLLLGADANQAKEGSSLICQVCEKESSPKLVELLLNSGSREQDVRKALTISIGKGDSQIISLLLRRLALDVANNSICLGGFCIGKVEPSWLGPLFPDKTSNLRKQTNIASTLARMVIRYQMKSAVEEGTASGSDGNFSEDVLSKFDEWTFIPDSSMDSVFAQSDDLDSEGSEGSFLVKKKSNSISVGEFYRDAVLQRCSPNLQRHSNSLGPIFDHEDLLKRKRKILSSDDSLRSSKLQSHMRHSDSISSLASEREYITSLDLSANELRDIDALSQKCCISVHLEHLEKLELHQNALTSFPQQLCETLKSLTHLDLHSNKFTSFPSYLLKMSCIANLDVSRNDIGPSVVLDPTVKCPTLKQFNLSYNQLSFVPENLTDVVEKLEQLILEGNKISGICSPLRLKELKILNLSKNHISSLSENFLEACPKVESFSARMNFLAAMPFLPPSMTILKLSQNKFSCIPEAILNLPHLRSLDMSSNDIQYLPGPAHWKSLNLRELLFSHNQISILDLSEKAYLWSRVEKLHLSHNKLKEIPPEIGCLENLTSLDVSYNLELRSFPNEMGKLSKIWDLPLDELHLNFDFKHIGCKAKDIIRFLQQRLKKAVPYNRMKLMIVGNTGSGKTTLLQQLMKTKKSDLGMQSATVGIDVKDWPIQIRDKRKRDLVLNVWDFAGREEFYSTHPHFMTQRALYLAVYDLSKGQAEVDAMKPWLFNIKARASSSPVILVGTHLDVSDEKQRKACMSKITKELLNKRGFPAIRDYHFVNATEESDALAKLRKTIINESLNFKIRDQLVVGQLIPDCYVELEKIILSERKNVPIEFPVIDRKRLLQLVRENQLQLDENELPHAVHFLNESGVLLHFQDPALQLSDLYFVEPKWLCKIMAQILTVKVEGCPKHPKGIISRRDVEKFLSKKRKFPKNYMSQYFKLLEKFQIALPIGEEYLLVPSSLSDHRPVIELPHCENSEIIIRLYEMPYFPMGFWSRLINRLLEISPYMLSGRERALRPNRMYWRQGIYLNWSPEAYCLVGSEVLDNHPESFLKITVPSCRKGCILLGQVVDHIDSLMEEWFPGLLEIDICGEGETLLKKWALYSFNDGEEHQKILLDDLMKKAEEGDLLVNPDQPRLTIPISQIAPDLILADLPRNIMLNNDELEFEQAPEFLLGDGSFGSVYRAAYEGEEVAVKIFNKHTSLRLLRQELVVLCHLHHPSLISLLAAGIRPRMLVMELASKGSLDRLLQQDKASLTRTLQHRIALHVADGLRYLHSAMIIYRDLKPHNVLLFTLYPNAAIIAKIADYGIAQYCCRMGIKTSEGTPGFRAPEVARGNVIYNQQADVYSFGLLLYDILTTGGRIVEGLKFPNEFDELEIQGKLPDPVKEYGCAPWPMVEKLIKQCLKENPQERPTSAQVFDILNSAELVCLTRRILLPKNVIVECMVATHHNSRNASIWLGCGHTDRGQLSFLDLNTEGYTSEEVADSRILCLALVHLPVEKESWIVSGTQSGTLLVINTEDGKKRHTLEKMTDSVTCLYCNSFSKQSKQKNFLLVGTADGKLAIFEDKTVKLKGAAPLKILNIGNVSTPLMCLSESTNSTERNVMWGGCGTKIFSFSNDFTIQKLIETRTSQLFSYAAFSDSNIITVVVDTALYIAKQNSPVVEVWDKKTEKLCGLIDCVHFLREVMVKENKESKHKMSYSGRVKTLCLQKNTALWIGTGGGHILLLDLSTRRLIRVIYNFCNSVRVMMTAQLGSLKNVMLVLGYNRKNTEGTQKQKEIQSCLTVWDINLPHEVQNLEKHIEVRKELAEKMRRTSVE

NOMO1 = assay: Cellular assay (ATPlite cell viability), NOMO1; format: cell-based; settings: NOMO1 cell line
Method: as §2, §3

BRD4 [1] = biological target: T2, BRD4 (Homo sapiens, UniProt O60885); assay: BRD4 IC50 (second BRD4 value listed in Table 2); format: binding; settings: second BRD4 IC50 listed per compound
Kasumi-1 = assay: Cellular assay (ATPlite cell viability), Kasumi-1; format: cell-based; settings: Kasumi-1 cell line
Method: as §2, §3

BRD4 [2] = biological target: T2, BRD4; assay: BRD4 IC50 (first BRD4 value listed in Table 2); format: binding; settings: first BRD4 IC50 listed per compound
Method: as §1

BRDT = BRDT (Homo sapiens, UniProt Q58F21); assay: BRDT IC50; format: binding
CREBBP [3] = biological target: T3, CREBBP (Homo sapiens, UniProt Q92793); assay: CREBBP KD (DiscoveRx); format: binding
T3 sequence (Q92793 whole entry): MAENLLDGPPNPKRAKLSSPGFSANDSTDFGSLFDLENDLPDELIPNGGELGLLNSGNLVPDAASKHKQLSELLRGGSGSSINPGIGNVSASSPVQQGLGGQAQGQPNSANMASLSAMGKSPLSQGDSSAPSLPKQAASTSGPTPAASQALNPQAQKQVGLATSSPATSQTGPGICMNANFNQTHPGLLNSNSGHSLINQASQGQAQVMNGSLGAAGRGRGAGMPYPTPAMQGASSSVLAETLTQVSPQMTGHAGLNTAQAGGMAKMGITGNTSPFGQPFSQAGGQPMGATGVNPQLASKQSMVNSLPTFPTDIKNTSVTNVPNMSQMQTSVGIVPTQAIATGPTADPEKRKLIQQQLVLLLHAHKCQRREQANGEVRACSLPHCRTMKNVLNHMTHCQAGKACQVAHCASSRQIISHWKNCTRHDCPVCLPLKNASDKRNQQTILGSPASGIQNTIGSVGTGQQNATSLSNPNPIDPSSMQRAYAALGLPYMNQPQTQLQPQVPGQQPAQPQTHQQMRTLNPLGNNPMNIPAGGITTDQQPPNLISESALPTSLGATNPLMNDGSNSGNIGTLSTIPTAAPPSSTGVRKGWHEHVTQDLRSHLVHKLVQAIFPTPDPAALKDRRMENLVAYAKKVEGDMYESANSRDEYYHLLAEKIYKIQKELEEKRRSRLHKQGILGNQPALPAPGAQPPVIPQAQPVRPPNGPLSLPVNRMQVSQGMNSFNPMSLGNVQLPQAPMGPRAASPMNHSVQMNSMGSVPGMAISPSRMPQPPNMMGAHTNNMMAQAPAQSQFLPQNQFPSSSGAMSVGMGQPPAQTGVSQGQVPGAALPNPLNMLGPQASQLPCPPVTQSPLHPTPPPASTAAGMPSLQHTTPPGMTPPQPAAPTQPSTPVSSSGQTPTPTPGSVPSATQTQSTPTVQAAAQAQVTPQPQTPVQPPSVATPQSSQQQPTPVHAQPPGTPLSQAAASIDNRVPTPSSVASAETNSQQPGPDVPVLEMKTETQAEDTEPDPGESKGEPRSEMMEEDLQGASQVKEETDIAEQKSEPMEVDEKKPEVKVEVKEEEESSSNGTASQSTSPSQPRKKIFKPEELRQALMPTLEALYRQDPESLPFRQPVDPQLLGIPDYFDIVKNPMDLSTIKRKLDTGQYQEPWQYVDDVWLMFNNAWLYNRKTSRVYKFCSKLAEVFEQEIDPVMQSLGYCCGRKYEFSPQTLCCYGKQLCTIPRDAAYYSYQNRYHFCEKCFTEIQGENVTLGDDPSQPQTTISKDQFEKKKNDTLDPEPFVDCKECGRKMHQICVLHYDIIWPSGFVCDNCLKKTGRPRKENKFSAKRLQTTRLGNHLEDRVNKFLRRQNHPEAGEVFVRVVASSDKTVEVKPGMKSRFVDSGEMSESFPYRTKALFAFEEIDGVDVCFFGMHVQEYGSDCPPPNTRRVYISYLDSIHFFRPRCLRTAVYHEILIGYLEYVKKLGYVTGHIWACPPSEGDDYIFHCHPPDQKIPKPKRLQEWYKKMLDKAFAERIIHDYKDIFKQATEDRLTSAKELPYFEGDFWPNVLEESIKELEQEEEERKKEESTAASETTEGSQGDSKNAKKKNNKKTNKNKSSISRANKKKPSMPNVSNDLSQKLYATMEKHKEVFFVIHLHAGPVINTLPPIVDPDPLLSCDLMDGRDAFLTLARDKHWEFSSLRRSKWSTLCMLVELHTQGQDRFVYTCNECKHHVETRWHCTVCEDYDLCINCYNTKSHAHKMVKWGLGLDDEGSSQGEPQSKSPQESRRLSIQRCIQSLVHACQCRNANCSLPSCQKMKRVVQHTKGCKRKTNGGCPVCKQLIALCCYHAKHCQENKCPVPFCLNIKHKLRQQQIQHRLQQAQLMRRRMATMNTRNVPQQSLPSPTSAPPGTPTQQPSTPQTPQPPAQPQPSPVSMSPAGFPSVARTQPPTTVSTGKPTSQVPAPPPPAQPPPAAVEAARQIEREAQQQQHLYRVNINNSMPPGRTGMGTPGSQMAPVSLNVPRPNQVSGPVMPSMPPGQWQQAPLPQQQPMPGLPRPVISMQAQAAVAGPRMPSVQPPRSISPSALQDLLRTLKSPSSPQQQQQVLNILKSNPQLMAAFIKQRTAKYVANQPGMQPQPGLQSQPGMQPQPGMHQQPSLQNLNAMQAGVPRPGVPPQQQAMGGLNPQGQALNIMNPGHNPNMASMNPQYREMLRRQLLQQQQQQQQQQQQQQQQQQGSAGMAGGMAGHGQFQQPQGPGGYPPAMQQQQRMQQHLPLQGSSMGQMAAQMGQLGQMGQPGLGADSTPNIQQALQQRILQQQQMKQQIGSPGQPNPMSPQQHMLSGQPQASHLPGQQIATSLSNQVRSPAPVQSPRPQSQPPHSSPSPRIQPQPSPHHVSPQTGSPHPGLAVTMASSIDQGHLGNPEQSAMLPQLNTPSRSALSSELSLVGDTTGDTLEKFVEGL

BRD4 [4] = biological target: T2, BRD4; assay: BRD4 KD (DiscoveRx); format: binding
CREBBP [5] = biological target: T3, CREBBP; assay: CREBBP IC50; format: binding

| inhibition at 2.5 µM (BRD4.1) [%] | IC50 (MOLM-13; Homo sapiens) [µM] | IC50 (MV411; Homo sapiens, MV4-11) [µM] | IC50 (BRD4 [1]) [µM] | IC50 (BRD4 [2]) [µM] | IC50 (BRDT) [µM] | SMILES | IC50 797 [µM] | IC50 (TF-1; Homo sapiens) [µM] | IC50 (NOMO1; Homo sapiens, NOMO-1) [µM] | IC50 (Kasumi-1; Homo sapiens) [µM] | further results |
| --- | --- | --- | --- | --- | --- | --- | --- | --- | --- | --- | --- |
| 45.8 | – | – | – | – | – | CCN1CCN(Cc2ccc(Nc3ncc4c(n3)N(C)c3ccccc3C(=O)N4C)cc2C(F)(F)F)CC1 | – | – | – | – | – |
| 36.1 | – | – | – | – | – | COc1cc(N2CCN(C)CC2)ccc1Nc1ncc2c(n1)N(C)c1ccccc1C(=O)N2C | – | – | – | – | – |
| 29.5 | – | – | – | – | – | CCOc1cc(N2CCC(O)CC2)ccc1Nc1ncc2c(n1)N(C)c1ccccc1C(=O)N2C | – | – | – | – | – |
| – | 1.27 | 0.549 | – | – | – | COc1cc(C(=O)N2CCC(N3CCN(C)CC3)CC2)ccc1Nc1ncc2c(n1)N(C)c1ccccc1C(=O)N2C [Compound 1-226] | 1.3 | 3.36 | 2 | – | IC50 (LRRK2): 0.007 µM |
| – | 4.63 | 2.44 | 2.6 | 1.99 | 5.55 | COc1cc(C(=O)N2CCC(N3CCN(C)CC3)CC2)ccc1N(C)c1ncc2c(n1)N(C)c1ccccc1C(=O)N2C [Compound 1-284] | 7.42 | 6.16 | 8.6 | 1.86 | IC50 (LRRK2): 4 µM |
| – | 5.74 | 3.48 | 5.7 | 0.00206 | 9.61 | CCN(c1ncc2c(n1)N(C)c1ccccc1C(=O)N2C)c1ccc(C(=O)N2CCC(N3CCN(C)CC3)CC2)cc1OC [Compound 2-041] | 7.1 | 7.21 | 8.3 | 2.36 | IC50 (LRRK2): 3 µM |
| – | 6.61 | > 10 | 1.51 | 0.732 | 2.73 | CN1C(=O)c2ccccc2N(C)c2nc(Nc3ccc(C(=O)O)cc3OC3CCCC3)ncc21 [Compound 2-043] | 1.79 | 7.1 | 6.8 | 4.78 | – |
| – | 0.00693 | 0.0071 | – | > 50 | – | C[C@@H](Oc1cc(-n2cnc3ccc(CN4CCN(C)CC4)cc32)sc1C(N)=O)c1ccccc1C(F)(F)F [GSK461364, reference compound] | 0.008 | – | 0.00591 | 0.0078 | TF-1 IC50 (TF-1; result in words): poor convergence |
| – | – | – | – | – | – | Cc1sc2c(c1C)C(c1ccc(Cl)cc1)=N[C@@H](CC(=O)OC(C)(C)C)c1nnc(C)n1-2 [JQ1, reference compound] | 0.092 | – | – | – | IC50 (MOLM-13): 0.0892 µM; IC50 (TF-1): 109 µM; IC50 (MV411): 0.0656 µM; IC50 (Kasumi-1): 0.0488 µM; IC50 (NOMO1): 0.172 µM |
| 20.5 | – | – | – | – | – | COc1cc(C(=O)N2CCC(N3CCN(C)CC3)CC2)ccc1Nc1ncc2c(n1)N(C)c1ccccc1C(=O)N2C [drawing 33] | – | – | – | – | – |

| SMILES | inhibition at 2.5 µM (BRD4.1) [%] | IC50 (MOLM-13; Homo sapiens) [µM] | IC50 (MV411; Homo sapiens, MV4-11) [µM] | IC50 (BRD4 [1]) [µM] | IC50 (BRD4 [2]) [µM] | IC50 (BRDT) [µM] | IC50 797 [µM] | IC50 (TF-1; Homo sapiens) [µM] | IC50 (NOMO1; Homo sapiens, NOMO-1) [µM] | IC50 (Kasumi-1; Homo sapiens) [µM] | further results |
| --- | --- | --- | --- | --- | --- | --- | --- | --- | --- | --- | --- |
| CN1C(=O)c2ccccc2N(C)c2nc(Nc3ccc(N4CCC(O)CC4)cc3)ncc21 | 50.8 | – | – | – | – | – | – | – | – | – | – |
| CN1C(=O)c2ccccc2N(C)c2nc(Nc3ccc(S(N)(=O)=O)cc3)ncc21 [Compound 2-075] | – | 0.433 | 0.252 | 1.8 | – | 2.88 | 0.034 | 2.14 | 2.5 | 0.096 | Kd (CREBBP [3]): 0.023 µM; Kd (BRD4 [4]): 0.18 µM; IC50 (BRD4 [2]; unit nm [sic]): 0.97 µM; IC50 (CREBBP [5]): 0.431 µM |
